Tests used:
SARS-CoV-2 USA-WA1/2020 = format: cell-based; settings: for viral infectivity (plaque assay): Vero-E6, MOI 0.0002, drug at 1 uM; for anti-viral activity against CoV2 infection of Vero-C6 cells: Vero-C6 (African green monkey kidney cells), dose response; for viral infectivity (number of plaques): Vero-E6, MOI 0.0001 or 0.0002, drugs added after infection at 1 uM and 10 uM
APP 5′UTR = assay: High-throughput transfection-based APP 5′UTR luciferase reporter assay in SH-SY5Y cells; format: cell-based; settings: high-throughput screen
APP 5′UTR / IRP1 = settings: refs [25,27]; cited from earlier work
APP mRNA = settings: refs [25,27]; cited from earlier work
SARS-CoV-2 = assay: Anti-viral efficacy assay by immunocytochemical fluorescence in infected Vero E6 cells; format: cell-based
Excerpt: 9A: Typical anti-viral efficacy assays conducted for the top COVID-19 inhibitors from a range of APP 5′UTR-directed inhibitors. In this exemplary case, Vero E6 cells were infected with SARS-CoV-2 at a multiplicity of infection of 0.1 and treated either with DMSO (negative control) or compound at the indicated concentrations. At 2 days post infection, cells were fixed and stained with an antibody against SARS-CoV-2 nucleocapsid protein. Cell nuclei were stained with DAPI. Infection rates quantified using Qupath software. 9B: Densitometric quantitation of JTR-009 dependent inhibition of Spike protein in COVID-19 infected Vero E6 cells (based on levels of Spike immunocytochemistry shown).
Initial virus assays were performed to experimentally test the benzimidazole APP 5′UTR directed translation blocker-9 (JTR-9) (FIG. 9). […] We tested JTR-009 for possible antiviral efficacy potentially via the related the CRRM motifs in the replicase open reading frame (ORF) related to the APP 5′UTR. We employed immunocytochemical fluorescence of Spike Protein as readout for viral infectivity. […] Therapeutic activity is being tested via the two CRRM RNA motifs in the virus replicase (FIG. 9).

Structure (SMILES)	viral infectivity (plaque assay) (SARS-CoV-2 USA-WA1/2020)	inhibition of APP 5′UTR driven expression of a Luciferase reporter gene (APP 5′UTR) [%]	anti-viral activity against CoV2 infection of Vero-C6 cells (SARS-CoV-2 USA-WA1/2020)	viral infectivity (number of plaques) (SARS-CoV-2 USA-WA1/2020)	further results
CCC12C=CCN3CC[C@@]4(c5ccc(OC)cc5N(C)[C@H]4[C@@](O)(C(=O)OC)[C@@H]1OC(C)=O)[C@@H]32 (mixture of isomers) [B1, vindoline]	reduced viral infectivity	–	–	–	–
CCCSc1ccc2nc(NC(=O)OC)[nH]c2c1 [Albendazole]	–	92.2	dose responsive anti-viral activity	inhibited viral infectivity	–
COC(=O)Nc1nc2ccc(Sc3ccccc3)cc2[nH]1 [Fenbendazole]	–	91.5	–	–	–
Cc1ccc2[nH]c(-c3ccc(N)cc3)nc2c1 [JTR-009]	–	–	dose responsive anti-viral activity	inhibited viral infectivity	binding of the APP 5′UTR to its cognate RNA binding protein, IRP1 (APP 5′UTR / IRP1): prevented binding; APP mRNA translation (APP mRNA): reduced APP mRNA translation; inhibition of COVID-19 viral spike protein (densitometric quantitation) (SARS-CoV-2; FIGS. 9A-B): inhibited COVID-19 viral spike protein; COVID-19 infectivity (immunocytochemical fluorescence of Spike Protein as readout) (SARS-CoV-2; MOI 0.1, 2 days post infection): dose-dependently inhibited COVID-19 infectivity
Cc1c(OCC(F)(F)F)ccnc1C[S+]([O-])c1nc2ccccc2[nH]1 (stereo not shown) [Lansoprazole]	–	–	dose responsive anti-viral activity	inhibited viral infectivity	–
CN1CC[C@]2(C)c3cc(OC(=O)Nc4ccccc4)ccc3N(C)[C@H]12 [Posiphen, posiphen]	reduced viral infectivity	–	–	–	–
CC(O)(CCOP(=O)(O)OP(=O)(O)O)CC(=O)O (stereo not drawn) [Syn-516]	reduced viral infectivity	–	–	–	–
CCCOc1ccc2nc(NC(=O)OC)[nH]c2c1 [oxibendazole]	–	85.9	–	–	–

From patent US20230181537A1, “Translation Blockers Repurposed for COVID-19 Therapy” (priority 2020, published 2023)
